According to US6362321B1, “Taxol resistance associated gene” (The General Hospital Corporation, priority 1998, dated 2002):

What was measured:
SKOV-3TR cells = assay: MTT cytotoxicity assay, taxol-resistant SKOV-3TR versus parental SKOV-3; assay type: cell-based, Human
Protocol: (§1) All drugs were obtained from commercial sources. In vitro cytotoxicity was measured using a tetrazolium-based semi-automated calorimetric assay (i.e., MTT assay), as described (Carmichael et al., 1987, Cancer Res. 47:936-942). Briefly, 2×10^3 cells per well were cultured for 6 days with taxol or with taxol plus 30 μM verapamil. 20 μl of 5 mg/ml MTT solution was added to each well and incubated for 4 hours. A590 nm was measured after MTT formazan was solubilized with HCl-isopropanol solution. The absorbance values were normalized by assigning the value of the parent line in media to 1.0 and the value of the no-cell blank to 0. Experiments were performed in duplicate.
A taxol-resistant SKOV-3 subline, SKOV-3TR, was established by exposing SKOV-3 cells to taxol at stepwise increases in concentration (from 0.00001 μM to 0.3 μM taxol). […] The growth rate of […], was similar to that of parental SKOV-3. Cell lines were analyzed for their degree of taxol resistance by MTT cytotoxicity assays. […] This drug resistance profile is consistent with a MDR1 phenotype.

[1] = tested on: SKOV-3 TRAG-3 transfectants; assay: MTT assay of taxol sensitivity in TRAG-3 stable transfectants of SKOV-3; assay type: cell-based, Human; conditions: SKOV-3 lipotransfected with pCI/TRAG-3, G418 selected; initial results
Protocol: as §1
pCI-neo Mammalian Expression Vector (Promega) was used to overexpress TRAG-3 cDNA in SKOV-3 cells. Constructs carrying TRAG-3 were introduced into SKOV-3 cells by using the PERFECT™ Transfection Kit (Invitrogen) according to the manufacturer's protocol. The individual G418 (300 μg/ml) resistant clones were isolated and examined by Northern analysis for stable expression of TRAG-3. MTT assays were performed on the transfectants to evaluate the effect of TRAG-3 on taxol sensitivity.
To elucidate the contribution of TRAG-3 gene product(s) to taxol resistance, taxol-sensitive SKOV-3 cells were lipotransfected with the pCI/TRAG-3 expression vector. After G418 selection, several TRAG-3 stable transfectant subclones were obtained. […]

**Q.** With `COc1ccc(CCN(C)CCCC(C#N)(c2ccc(OC)c(OC)c2)C(C)C)cc1OC` (stereo not shown) [verapamil] as the compound, how does the “effect of verapamil on SKOV-3TR's resistance to taxol” value (SKOV-3TR cells; taxol plus 30 μM verapamil, MTT assay, FIG. 1) read?
**A.** reversed

**Q.** `CC[C@]1(O)C[C@H]2CN(CCc3c([nH]c4ccccc34)[C@@](C(=O)OC)(c3cc4c(cc3OC)N(C=O)[C@H]3[C@@](O)(C(=O)OC)[C@H](OC(C)=O)[C@]5(CC)C=CCN6CC[C@]43[C@@H]65)C2)C1` [vincristine] was tested. Which “resistance of SKOV-3TR to other drugs (cross-resistance)” value (SKOV-3TR cells; SKOV-3TR selected with taxol up to 0.3 μM) did it give?
**A.** cross-resistance

**Q.** Which results are given for `CC(=O)O[C@H]1C(=O)[C@@]2(C)[C@H]([C@H](OC(=O)c3ccccc3)[C@]3(O)C[C@H](OC(=O)[C@H](O)[C@@H](NC(=O)c4ccccc4)c4ccccc4)C(C)=C1C3(C)C)[C@]1(OC(C)=O)CO[C@@H]1C[C@@H]2O` [taxol]?
**A.** degree of taxol resistance of SKOV-3TR relative to SKOV-3 (SKOV-3TR cells; MTT cytotoxicity, SKOV-3TR vs parental SKOV-3, 6 days culture): approximately 100 fold; taxol resistance of TRAG-3 transfectants compared to the parent line [1]: no significant increase in taxol resistance
